Measured values from patent US8889874B2, “Imidazolone-chalcone derivatives as potential anticancer agent and process for the preparation thereof” (Council of Scientific and Industrial Research, priority 2010, dated 2014).
Like-named read-outs stand apart in the source and are kept apart here.

How the values were obtained:
Format in all cases: cell-based, human
[1] = test system: Ovarian cancer cell lines; assay: NCI anticancer screen, SRB assay, panel summary; conditions: Homo sapiens
Outline: (§1)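 Compounds were tested across fifty three human cancer cell lines from nine tumour types. Each line got a dose-response curve of at least five concentrations at 10-fold dilutions, with continuous drug exposure and sulforhodamine B protein staining to estimate viability or growth.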

[2] = test system: Prostate cancer cell lines; assay: NCI anticancer screen, SRB assay, panel summary
Outline: as §1

[3] = test system: Melanoma cancer cell lines; assay: NCI anticancer screen, SRB assay, panel summary; conditions: for GI50: Homo sapiens
Outline: as §1

Colon cancer cell lines = assay: NCI anticancer screen, SRB assay, panel summary; conditions: for GI50: Homo sapiens
Outline: as §1

Breast cancer cell lines = assay: NCI anticancer screen, SRB assay, panel summary; conditions: Homo sapiens
Outline: as §1

[4] = test system: Leukemia cancer cell lines; assay: NCI anticancer screen, SRB assay, panel summary; conditions: Homo sapiens
Outline: as §1

Renal cancer cell lines = assay: NCI anticancer screen, SRB assay, panel summary; conditions: Homo sapiens
Outline: as §1

[5] = test system: Non-small cell lung cancer cell lines; assay: NCI anticancer screen, SRB assay, panel summary; conditions: Homo sapiens
Outline: as §1

CNS cancer cell lines = assay: NCI anticancer screen, SRB assay, panel summary; conditions: for GI50: Homo sapiens
Outline: as §1

NCI/ADR-RES (ovarian) = assay: NCI anticancer screen, SRB assay, 48 h; conditions: Homo sapiens, NCI/ADR-RES
Outline: as §1

SN12C (renal) = assay: NCI anticancer screen, SRB assay, 48 h; conditions: Homo sapiens, SN12C
Outline: as §1

OVCAR-4 (ovarian) = assay: NCI anticancer screen, SRB assay, 48 h; conditions: Homo sapiens
Outline: as §1

CAKI-1 (renal) = assay: NCI anticancer screen, SRB assay, 48 h; conditions: Homo sapiens
Outline: as §1

HCT-116 (colon) = assay: NCI anticancer screen, SRB assay, 48 h; conditions: Homo sapiens
Outline: as §1

SNB-19 (CNS) = assay: NCI anticancer screen, SRB assay, 48 h; conditions: Homo sapiens
Outline: as §1

TD-47D (breast) = assay: NCI anticancer screen, SRB assay, 48 h; conditions: Homo sapiens
Outline: as §1

UACC-257 (melanoma) = assay: NCI anticancer screen, SRB assay, 48 h; conditions: Homo sapiens
Outline: as §1

TK-10 (renal) = assay: NCI anticancer screen, SRB assay, 48 h; conditions: Homo sapiens
Outline: as §1

U251 (CNS) = assay: NCI anticancer screen, SRB assay, 48 h; conditions: Homo sapiens
Outline: as §1

[6] = test system: RPMI-8226 (leukemia cell line); assay: NCI anticancer screen, SRB assay, 48 h; conditions: Homo sapiens
Outline: as §1

[7] = test system: NCI-H226 (non-small cell lung); assay: NCI anticancer screen, SRB assay, 48 h; conditions: Homo sapiens
Outline: as §1

HCT-15 (colon) = assay: NCI anticancer screen, SRB assay, 48 h; conditions: Homo sapiens
Outline: as §1

HCC-2998 (colon) = assay: NCI anticancer screen, SRB assay, 48 h; conditions: Homo sapiens
Outline: as §1

SK-MEL-5 (melanoma) = assay: NCI anticancer screen, SRB assay, 48 h; conditions: Homo sapiens
Outline: as §1

MDA-MB-435 (melanoma) = assay: NCI anticancer screen, SRB assay, 48 h; conditions: Homo sapiens
Outline: as §1

[8] = test system: A549/ATCC (non-small cell lung); assay: NCI anticancer screen, SRB assay, 48 h; conditions: Homo sapiens
Outline: as §1

[9] = read-out: pGI50 (-log of molar concentration causing 50% inhibition of net cell growth) (converted)
[10] = 48 h exposure, SRB, read-out: GI50

SMILES: O=C(/C=C/c1cccc(O)c1)c1cccc(-n2cc(-c3ccc4ccccc4c3)[nH]c2=O)c1 [12b, 1-3-[(E)-3-(3-hydroxyphenyl)-2-propenoyl]phenyl-4-(2-naphthyl)-2,3-dihydro-1H-2-imidazolone]
- GI50 ([1]; Ovarian panel, log of concentration in mol/L causing 50% inhibition of net cell growth, read-out: mean graph midpoint (MG_MID) of Log10 GI50 (converted)): 1820 nM
- LC50 ([1]; Ovarian panel, log of concentration leading to 50% net cell death, read-out: mean graph midpoint (MG_MID) of Log10 LC50 (converted)): 25.7 µM
- GI50 ([1]; six ovarian cancer cell lines, exposure at least 48 hrs, read-out: GI50, range over the panel): 1330 to 2330 nM
- GI50 ([2]; Homo sapiens, log of concentration in mol/L causing 50% inhibition of net cell growth, read-out: mean graph midpoint (MG_MID) of Log10 GI50 (converted)): 1860 nM
- LC50 ([2]; Homo sapiens, log of concentration leading to 50% net cell death, read-out: mean graph midpoint (MG_MID) of Log10 LC50 (converted)): 79.4 µM
- mean graph midpoint (MG_MID) of Log10 TGI ([2]; log of concentration resulting in total inhibition of net cell growth): 5.10
- GI50 ([3]; Melanoma panel, log of concentration in mol/L causing 50% inhibition of net cell growth, read-out: mean graph midpoint (MG_MID) of Log10 GI50 (converted)): 1950 nM
- GI50 ([3]; nine melanoma cancer cell lines, exposure at least 48 hrs, read-out: GI50, range over the panel): 850 to 4130 nM
- mean graph midpoint (MG_MID) of Log10 LC50 ([3]; Melanoma panel, log of concentration leading to 50% net cell death): 4.62
- mean graph midpoint (MG_MID) of Log10 LC50 (Colon cancer cell lines; Colon panel, log of concentration leading to 50% net cell death): 5.08
- GI50 (Colon cancer cell lines; Colon panel, log of concentration in mol/L causing 50% inhibition of net cell growth, read-out: mean graph midpoint (MG_MID) of Log10 GI50 (converted)): 1020 nM
- GI50 (Colon cancer cell lines; seven colon cancer cell lines, exposure at least 48 hrs, read-out: GI50, range over the panel): 220 to 2130 nM
- GI50 (Breast cancer cell lines; Breast panel, log of concentration in mol/L causing 50% inhibition of net cell growth, read-out: mean graph midpoint (MG_MID) of Log10 GI50 (converted)): 1290 nM
- LC50 (Breast cancer cell lines; Breast panel, log of concentration leading to 50% net cell death, read-out: mean graph midpoint (MG_MID) of Log10 LC50 (converted)): 31.6 µM
- GI50 (Breast cancer cell lines; five breast cancer cell lines, exposure at least 48 hrs, read-out: GI50, range over the panel): 470 to 2010 nM
- GI50 ([4]; Leukemia panel, log of concentration in mol/L causing 50% inhibition of net cell growth, read-out: mean graph midpoint (MG_MID) of Log10 GI50 (converted)): 1550 nM
- LC50 ([4]; Leukemia panel, log of concentration leading to 50% net cell death, read-out: mean graph midpoint (MG_MID) of Log10 LC50 (converted)): ≥ 100 µM
- GI50 ([4]; two leukemia cancer cell lines (RPMI-8226 and K-562), exposure at least 48 hrs, read-out: GI50, range over the panel): 1430 to 1670 nM
- GI50 (Renal cancer cell lines; Renal panel, log of concentration in mol/L causing 50% inhibition of net cell growth, read-out: mean graph midpoint (MG_MID) of Log10 GI50 (converted)): 8.91 µM
- LC50 (Renal cancer cell lines; Renal panel, log of concentration leading to 50% net cell death, read-out: mean graph midpoint (MG_MID) of Log10 LC50 (converted)): 10.2 µM
- GI50 (Renal cancer cell lines; eight renal cancer cell lines, exposure at least 48 hrs, read-out: GI50, range over the panel): 1.26 to 3.45 µM
- GI50 ([5]; Non-small cell lung panel, log of concentration in mol/L causing 50% inhibition of net cell growth, read-out: mean graph midpoint (MG_MID) of Log10 GI50 (converted)): 1740 nM
- LC50 ([5]; Non-small cell lung panel, log of concentration leading to 50% net cell death, read-out: mean graph midpoint (MG_MID) of Log10 LC50 (converted)): 20 µM
- GI50 ([5]; nine non-small cell lung cancer cell lines, exposure at least 48 hrs, read-out: GI50, range over the panel): 510 to 3380 nM
- mean graph midpoint (MG_MID) of Log10 LC50 (CNS cancer cell lines; CNS panel, log of concentration leading to 50% net cell death): 5.04
- GI50 (CNS cancer cell lines; CNS panel, log of concentration in mol/L causing 50% inhibition of net cell growth, read-out: mean graph midpoint (MG_MID) of Log10 GI50 (converted)): 1480 nM
- GI50 (CNS cancer cell lines; six CNS cancer cell lines, exposure at least 48 hrs, read-out: GI50, range over the panel): 1090 to 1880 nM
- GI50 (NCI/ADR-RES (ovarian); NCl/ADR-RES, 48 h exposure, SRB, read-out: GI50): 1550 nM
- GI50 (NCI/ADR-RES (ovarian); [9]): 1550 nM
- GI50 (SN12C (renal); SN 12C, read-out: pGI50 (-log of molar concentration causing 50% inhibition of net cell growth) (converted)): 1450 nM
- GI50 (SN12C (renal); [10]): 1440 nM
- GI50 (OVCAR-4 (ovarian); [10]): 1680 nM
- GI50 (OVCAR-4 (ovarian); [9]): 1700 nM
- GI50 (CAKI-1 (renal); [10]): 1450 nM
- GI50 (CAKI-1 (renal); [9]): 1450 nM
- GI50 (HCT-116 (colon); [10]): 400 nM
- GI50 (HCT-116 (colon); [9]): 398 nM
- GI50 (SNB-19 (CNS); [10]): 1320 nM
- GI50 (SNB-19 (CNS); [9]): 1320 nM
- GI50 (TD-47D (breast); [10]): 1110 nM
- GI50 (TD-47D (breast); [9]): 1120 nM
- GI50 (UACC-257 (melanoma); [10]): 4.13 µM
- GI50 (UACC-257 (melanoma); [9]): 4.17 µM
- GI50 (TK-10 (renal); [10]): 3.45 µM
- GI50 (TK-10 (renal); [9]): 3.47 µM
- GI50 (U251 (CNS); U-251, 48 h exposure, SRB, read-out: GI50): 1090 nM
- GI50 (U251 (CNS); U-251, read-out: pGI50 (-log of molar concentration causing 50% inhibition of net cell growth) (converted)): 1100 nM
- GI50 [6, 10]: 1670 nM
- GI50 [6, 9]: 1660 nM
- GI50 [7, 10]: 2430 nM
- GI50 [7, 9]: 2450 nM
- GI50 (HCT-15 (colon); [10]): 1560 nM
- GI50 (HCT-15 (colon); [9]): 1550 nM
- GI50 (HCC-2998 (colon); [10]): 2130 nM
- GI50 (HCC-2998 (colon); [9]): 2140 nM
- GI50 (SK-MEL-5 (melanoma); [10]): 1160 nM
- GI50 (SK-MEL-5 (melanoma); [9]): 1150 nM
- GI50 (MDA-MB-435 (melanoma); [10]): 1710 nM
- GI50 (MDA-MB-435 (melanoma); [9]): 1700 nM
- GI50 [8, 10]: 3.38 µM
- GI50 [8, 9]: 3.39 µM
